Assay results taken from patent US7932405B2, “Halogenated ester derivatives of coumarins for the treatment of coagulation disorders” (Aryx Therapeutics, Inc., priority 2007, dated 2011).
Marks after values point to notes of the source that are not given here.

Key:
[1] = Control incubation without microsomes (buffer stability); type: physicochemical; settings: 2 μM final concentration, no microsomes; for half-life at 2 μM: buffer without microsomes (control incubation), pH 7.4, read-out: Buffer Est T½
Description: Pooled human liver microsomes were used as an in vitro model of drug metabolism. These microsomes contain both esterase and CYP450 drug metabolizing enzymes. […] Test compounds dissolved in acetonitrile:DMSO (1:99) were added to a final concentration of 2 μM. Incubations were performed at 37° C. and samples (50 μL) were collected after 5, 15, 30, 60 and 90 minutes and then were precipitated by the addition of 100 μL of acetonitrile containing Internal Standard and centrifuged at 14,000 rpm for 15 min at 4° C. Samples were analyzed by LC/MS/MS for the content of parent drug.
All of the compounds were stable.

[2] = molecular target: T1, vitamin K epoxide reductase (VKER) (Bos taurus, UniProt Q6B4J2); test: Vitamin K epoxide reductase inhibition, bovine liver microsomal preparation, residual vitamin K epoxide by HPLC; type: biochemical
T1 construct: Microsomes were prepared from fresh cow liver; from tissue; host or cells: fresh cow liver microsomes
T1 sequence (Q6B4J2 1-163): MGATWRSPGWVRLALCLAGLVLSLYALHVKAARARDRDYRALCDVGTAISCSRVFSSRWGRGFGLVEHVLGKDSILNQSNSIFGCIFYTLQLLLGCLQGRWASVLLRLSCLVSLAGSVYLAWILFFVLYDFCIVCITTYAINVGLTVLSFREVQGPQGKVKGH
Description: Compounds of the subject invention were tested against vitamin K epoxide reductase.
Briefly: increasing concentrations of compounds were incubated in the presence of vitamin K epoxide and in the presence of a bovine microsomal preparation containing vitamin K epoxide reductase. The amount of residual vitamin K epoxide at the end of the incubation period was directly proportional to the inhibitory activity of the test compounds on the enzyme.
Microsomes were prepared from fresh cow liver according to the method described in: “Purification of gamma-glutamyl carboxylase from bovine liver. Wu S M, Mutucumarana V P, and Stafford D W. Methods in Enzymology (1997) 282:346-57.”
Serial dilutions of test compounds were prepared as follows: Dissolve the test compounds to a final dilution of 10 mM either in water or in DMSO (if not soluble in water). From this mother solution, prepare 2 further dilutions by diluting it with water: one 200 μM solution and one 5 mM solution. Prepare a series of tubes as follows:
Remove 15 μL from tube 4 and add to tube 5, vortex, then remove 15 μL from tube 5 and add to tube 6, vortex, etc. . . . until 15 μL is added to tube 9. Vortex and then remove 15 μL from tube 9.
Prepare another set of 4 tubes and add 30 μL of water.
A reaction mixture consisting of 600 μL buffer (2.5M NaCl, 0.125M MOPS, pH7.5), 520 μL water, and 150 μL of 10% CHAPS was prepared. The tubes were kept on ice for 5 minutes and then 500 μL of microsomal preparation was added. The mixture was mixed by vortex and kept on ice for 10 min for sufficient solubilization. To this was added 150 μL of vitamin K epoxide solution (1.5 mg/ml in isopropanol), then again vortexed and kept on ice for 5 minutes. An aliquot (70 μL) of this reaction mix was added to each one of the series of tubes prepared as above and containing serial dilutions of test compounds in 30 μL of water. The tubes were then vortexed and then kept on ice for 5 min. To 2 of the water-containing tubes was added 500 μL of a stop reagent consisting of 5 volumes of 50 mM AgNO3 and 5 volumes of isopropanol. These 2 tubes were used to measure a zero value.
The tubes were placed in a 30 C mixer for 3 min and 5 μL of 100 mM DTT solution in water was added. The tubes were then vortexed and kept in the dark without shaking for another 20 min, at the end of which 500 μL of the stop reagent was added.
To each tube was then added 600 μL of a 100 μg/ml solution of vitamin E in hexane, the tubes were capped and then vortexed for 1 minute. The tubes were then centrifuged for 5 min at 5,000 g, and the upper layer (the hexane layer) was transferred to a series of fresh tubes. The hexane was evaporated at room temperature in the dark using a speedvac, and the resulting pellet was resuspended in 100 μL of methanol.
The amount of vitamin K epoxide in each sample was then measured using a HPLC determination method. Residual vitamin K epoxide was then plotted against test compound concentration.

[3] = tested on: pooled human liver microsomes (esterase); test: Metabolism in pooled human liver microsomes without NADPH (esterase alone); type: in vitro ADME; settings: 2 μM final concentration
Description: (§1) Pooled human liver microsomes were used as an in vitro model of drug metabolism. These microsomes contain both esterase and CYP450 drug metabolizing enzymes. Pooled human microsomes were suspended in Tris buffer (50 mM, pH 7.4) at a final concentration of 1 mg/mL of microsomal protein. Test compounds dissolved in acetonitrile:DMSO (1:99) were added to a final concentration of 2 μM. Incubations were performed at 37° C. and samples (50 μL) were collected after 5, 15, 30, 60 and 90 minutes and then were precipitated by the addition of 100 μL of acetonitrile containing Internal Standard and centrifuged at 14,000 rpm for 15 min at 4° C. Samples were analyzed by LC/MS/MS for the content of parent drug.
(§2) To determine the role of CYP450 in the metabolism, incubations were run either with or without an NADPH regenerating system−NADPH is an obligate cofactor for CYP450 enzymes. Incubations that included NADPH cofactor represent the total metabolism by CYP450+ esterase. […] Thus, when the relative decline of parent drug observed is greater in the presence of NADPH, the metabolism is CYP450-mediated. When the relative decline is equivalent in the presence and absence of cofactor the metabolism is esterase mediated.

[4] = tested on: pooled human liver microsomes (CYP450 + esterase); test: Metabolism in pooled human liver microsomes with NADPH (CYP450 + esterase); type: in vitro ADME; settings: 2 μM final concentration
[5] = Metabolism in pooled human liver microsomes without NADPH (esterase alone); type: in vitro ADME; settings: human, pooled human liver microsomes without NADPH, pH 7.4, 2 μM final concentration, read-out: Esterase Est T½
Description: as §1, §2

[6] = Metabolism in pooled human liver microsomes with NADPH (CYP450 + esterase); type: in vitro ADME; settings: human, pooled human liver microsomes with NADPH regenerating system, pH 7.4, 2 μM final concentration, read-out: CYP + Esterase Est T½
[7] = Broad cellular and biochemical receptor screening assay; settings: concentrations up to 10 μM
[8] = molecular target: T2, human IKr (hERG) (Homo sapiens, UniProt Q12809); test: Whole-cell patch-clamp recording of IKr in stably transfected HEK-293 cells expressing the hERG gene; type: cell-based
T2 construct: expressed in transfected cells; host or cells: HEK-293, stably transfected
Description: Electrophysiological recordings of IKr in stably transfected HEK-293 cells were made in the whole cell configuration of the patch-clamp technique (Hamill et al, 1981) using an Axopatch 200B amplifier (Axon Instruments, Foster City, Calif.). Patch microelectrodes were pulled from 1.5-mm borosilicate glass tubing using a two-stage vertical pipette puller (Narishige, East Meadow, N.Y.). […] HEK-293 cells were plated in 35 mm plastic cell and tissue culture dishes for 2-3 days. For application of drug-containing solutions to cells, the SF-77B system (Warner Instrument Corp, Hamden, Conn.) was used. Solution exchanges were completed within 20 ms. Current data were digitized online using a DigiData 1200A analog-to-digital board (Axon Instruments) and stored on the hard disc of an IBM compatible Pentium computer (GP7-600 MHz, Gateway Computer, Sioux City, N. Dak.). […]
The effect of warfarin, 2,2,2-trifluoro-1-methyl-1-(trifluoromethyl)ethyl 4-[(4-hydroxy-2-oxo-2H-chromen-3-yl)methyl]benzoate and its corresponding acid metabolite, 4-[(4-hydroxy-2-oxo-2H-chromen-3-yl)methyl]benzoic acid on IKr was studied in a stably transfected HEK-293 cell line using a two-pulse protocol. […] Tail IKr amplitude was measured as the difference between the peak current and baseline current at −50 mV in control and in the presence of ATI-compounds when steady-state block was obtained.

T2 sequence (Q12809 whole entry): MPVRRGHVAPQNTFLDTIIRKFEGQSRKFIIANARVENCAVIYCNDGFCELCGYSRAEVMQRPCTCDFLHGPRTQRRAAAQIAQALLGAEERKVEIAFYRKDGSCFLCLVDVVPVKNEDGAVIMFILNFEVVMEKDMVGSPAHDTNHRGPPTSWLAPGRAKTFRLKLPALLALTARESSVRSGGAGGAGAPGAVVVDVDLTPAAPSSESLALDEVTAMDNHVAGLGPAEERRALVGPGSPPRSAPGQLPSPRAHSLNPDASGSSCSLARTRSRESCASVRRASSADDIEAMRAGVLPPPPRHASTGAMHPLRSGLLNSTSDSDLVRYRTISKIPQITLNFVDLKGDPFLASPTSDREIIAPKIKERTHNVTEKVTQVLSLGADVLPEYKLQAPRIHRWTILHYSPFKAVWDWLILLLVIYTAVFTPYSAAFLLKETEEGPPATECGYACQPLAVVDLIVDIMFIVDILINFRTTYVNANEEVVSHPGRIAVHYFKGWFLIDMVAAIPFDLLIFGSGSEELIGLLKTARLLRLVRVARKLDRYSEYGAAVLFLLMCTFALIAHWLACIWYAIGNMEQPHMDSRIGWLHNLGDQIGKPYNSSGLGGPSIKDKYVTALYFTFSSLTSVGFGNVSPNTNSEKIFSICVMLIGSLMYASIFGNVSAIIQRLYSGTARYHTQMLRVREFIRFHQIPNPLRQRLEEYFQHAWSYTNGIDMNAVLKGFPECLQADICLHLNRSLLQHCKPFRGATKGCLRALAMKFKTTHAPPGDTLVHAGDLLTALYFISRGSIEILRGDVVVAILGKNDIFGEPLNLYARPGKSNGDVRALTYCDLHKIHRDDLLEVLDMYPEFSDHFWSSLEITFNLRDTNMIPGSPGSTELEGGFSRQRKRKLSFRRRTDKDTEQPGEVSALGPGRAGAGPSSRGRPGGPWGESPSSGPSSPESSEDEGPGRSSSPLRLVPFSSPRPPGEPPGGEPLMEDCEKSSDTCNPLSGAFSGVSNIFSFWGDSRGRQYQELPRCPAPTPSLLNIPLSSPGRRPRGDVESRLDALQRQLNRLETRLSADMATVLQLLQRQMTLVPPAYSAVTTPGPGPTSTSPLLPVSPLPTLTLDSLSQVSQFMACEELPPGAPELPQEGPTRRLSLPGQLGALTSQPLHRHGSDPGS

Row | Compound | Buffer % Stability at 90 min [1] [%] | half-life at 2 μM [1] [h] | IC50 [2] [µM] | Esterase Est T½ [3] [h] | Esterase % Stability at 90 min [3] [%] | CYP + Esterase Est T½ [4] [h] | CYP + Esterase % Stability at 90 min [4] | half-life at 2 μM [6] [h] | half-life at 2 μM [5] [h] | activity in broad cellular and biochemical receptor screening [7] | IC50 [8] [µM]
1 | CC(OC(=O)c1ccc(Cc2c(O)c3ccccc3oc2=O)cc1)(C(F)(F)F)C(F)(F)F [drawing 30] | 92 | > 1.5 | 5.07 | – | 96 | – | 90%** (>90 min) | > 1.5 | > 1.5 | – | –
2 | O=C(O)c1ccc(Cc2c(O)c3ccccc3oc2=O)cc1 [4-[(4-hydroxy-2-oxo-2H-chromen-3-yl)methyl]benzoic acid] | – | – | – | – | – | – | – | – | – | Nor did either compound exhibit significant activity | > 1000
3 | O=C(O)c1ccc(Cc2c(O)c3ccccc3oc2=O)cc1 [drawing 28] | 99 | > 1.5 | > 30 | – | – | – | 101% | > 1.5 | – | – | –
4 | CC(=O)CC(c1ccccc1)c1c(O)c2ccccc2oc1=O (stereo not shown) [Warfarin, reference compound] | – | – | 3 ± 0.8 | – | – | – | – | – | – | – | –
5 | CC(OC(=O)c1ccc(Cc2c(O)c3ccccc3oc2=O)cc1)(C(F)(F)F)C(F)(F)F [2,2,2-trifluoro-1-methyl-1-(trifluoromethyl)ethyl 4-[(4-hydroxy-2-oxo-2H-chromen-3-yl)methyl]benzoate] | – | – | – | – | – | – | – | – | – | Nor did either compound exhibit significant activity | > 100

More lines, main results first:

Row | Buffer % Stability at 90 min [1] [%] | half-life at 2 μM [1] [h] | IC50 [2] [µM] | Esterase Est T½ [3] [h] | Esterase % Stability at 90 min [3] [%] | CYP + Esterase Est T½ [4] [h] | CYP + Esterase % Stability at 90 min [4] | half-life at 2 μM [6] [h] | Compound | half-life at 2 μM [5] [h] | activity in broad cellular and biochemical receptor screening [7] | IC50 [8] [µM]
6 | 123 | > 1.5 | 4.02 | > 1.5 | 86 | > 1.5 | 70% | – | CC(OC(=O)c1ccc(Cc2c(O)c3ccccc3oc2=O)cc1)C(F)(F)C(F)(F)F (stereo not shown) [drawing 31] | – | – | –
7 | 108 | > 1.5 | 3.38 | – | 70 | – | 69% | > 1.5 | CC(OC(=O)c1ccc(Cc2c(O)c3ccccc3oc2=O)cc1)C(F)(F)C(F)(F)F (racemic) | > 1.5 | – | –
8 | 113 | – | 4.15 | ~0.5 | 27 | ~0.5 | 24% | – | CC(OC(=O)c1ccc(Cc2c(O)c3ccccc3oc2=O)cc1)C(F)(F)C(F)(F)F (stereo not shown) [drawing 32] | – | – | –
